The record followed here is ChEMBL document CHEMBL4334526, “Synthesis of Peptoid-Based Class I-Selective Histone Deacetylase Inhibitors with Chemosensitizing Properties” (J Med Chem, 2019).

For test [1], the target named is T1, Class 1 histone deacetylase (Homo sapiens, UniProt Q13547+O15379+Q92769+Q9BY41). The note with it: CAL-27.
Description: Inhibition of class 1 HDAC in human CAL27 cells assessed as potentiation of cisplatin-induced cytotoxicity by measuring combination index at 0.1 uM in presence of 0.1 uM cisplatin by MTT assay based Chou-Talalay analysis
Test [2] concerns the target T1, Class 1 histone deacetylase. The note with it: CAL-27. This is another data set of the same source.
Description: Inhibition of class 1 HDAC in human CAL27 cells assessed as potentiation of cisplatin-induced cytotoxicity by measuring combination index at 0.25 uM in presence of 3.2 uM cisplatin by MTT assay based Chou-Talalay analysis
For test [3] the target is unchanged. The note with it: CAL-27. This is another data set of the same source.
Description: Inhibition of class 1 HDAC in human CAL27 cells assessed as potentiation of cisplatin-induced cytotoxicity by measuring combination index at 0.25 uM in presence of 1 uM cisplatin by MTT assay based Chou-Talalay analysis
Test [4] has the same target. The note with it: CAL-27. This is another data set of the same source.
Description: Inhibition of class 1 HDAC in human CAL27 cells assessed as potentiation of cisplatin-induced cytotoxicity by measuring combination index at 0.1 uM in presence of 0.32 uM cisplatin by MTT assay based Chou-Talalay analysis
Test [5] shares this target.
Description: Inhibition of class 1 HDAC in human Cal27CisR cells assessed as potentiation of cisplatin-induced cytotoxicity by measuring combination index at 0.10 uM in presence of 10 uM cisplatin by MTT assay based Chou-Talalay analysis
For test [6] the target is unchanged. The source holds these as a separate data set.
Description: Inhibition of class 1 HDAC in human Cal27CisR cells assessed as potentiation of cisplatin-induced cytotoxicity by measuring combination index at 0.25 uM in presence of 10 uM cisplatin by MTT assay based Chou-Talalay analysis
The nature of test [7]: Induction of apoptosis in human Cal27CisR cells assessed as accumulation at sub-G1 phase at 100 uM measured after 48 hrs by propidium iodide staining based flow cytometry relative to control. In kind it is functional.
For test [8], the target named is T1, Class 1 histone deacetylase. Format: cell-based. The note with it: cal-27.
For test [9] the target is unchanged. Nature of the test: Inhibition of class 1 HDAC in human CAL27 cells assessed as increase in histone H3 acetylation at 5 uM measured after 24 hrs by immunoblot analysis. In kind it is cell-based. The following applies: CAL-27.
Test [10] has the same target. Briefly: Inhibition of class 1 HDAC in human Cal27CisR cells assessed as potentiation of cisplatin-induced cytotoxicity by measuring combination index at 5 uM in presence of […] cisplatin by MTT assay based Chou-Talalay analysis. In kind it is cell-based.
Test [11] shares this target. Nature of the test: Inhibition of class 1 HDAC in human Cal27CisR cells assessed as potentiation of cisplatin-induced cytotoxicity by measuring combination index at 5 uM in presence of 100 uM cisplatin by MTT assay based Chou-Talalay analysis. In kind it is cell-based.
Test [12] has the same target. Nature of the test: Inhibition of class 1 HDAC in human CAL27 cells assessed as potentiation of cisplatin-induced cytotoxicity by measuring combination index at 5 uM in presence of 10 uM cisplatin by MTT assay based Chou-Talalay analysis. The note with it: CAL-27. In kind it is cell-based.
Test [13] has the same target. Nature of the test: Inhibition of class 1 HDAC in human Cal27CisR cells assessed as potentiation of cisplatin-induced apoptosis by measuring increase in accumulation at sub-G1 phase at 5 uM preincubated for 48 hrs followed by cisplatin addition and measured after 24 hrs by propidium iodide staining based flow cytometry. In kind it is cell-based.
Test [14] has the same target. Nature of the test: Inhibition of class 1 HDAC in human CAL27 cells assessed as potentiation of cisplatin-induced cytotoxicity by measuring cisplatin IC50 at 5 uM preincubated for 48 hrs followed by cisplatin addition and measured after 72 hrs by MTT assay (reference value: 9.79 uM). In kind it is cell-based. The note with it: cal-27.
Test [15] shares this target. Nature of the test: Inhibition of class 1 HDAC in human Cal27CisR cells assessed as potentiation of cisplatin-induced cytotoxicity by measuring fold reduction in cisplatin IC50 at 5 uM preincubated for 48 hrs followed by cisplatin addition and measured after 72 hrs by MTT assay relative to cisplatin IC50. In kind it is cell-based.
Test [16] has the same target. Nature of the test: Inhibition of class 1 HDAC in human Cal27CisR cells assessed as potentiation of cisplatin-induced cytotoxicity by measuring cisplatin IC50 at […] preincubated for 48 hrs followed by cisplatin addition and measured after 72 hrs by MTT assay (reference value: 63.2 uM). Format: cell-based.
Test [17] has the same target. Nature of the test: Inhibition of class 1 HDAC in human CAL27 cells assessed as potentiation of cisplatin-induced apoptosis by measuring increase in accumulation at sub-G1 phase at […] preincubated for 48 hrs followed by cisplatin addition and measured after 24 hrs by propidium iodide staining based flow cytometry. The note with it: CAL-27. In kind it is cell-based.

The target of test [18] is T2, Protein deacetylase HDAC6 (Homo sapiens) (UniProt Q9UBN7).
T2 sequence (whole entry): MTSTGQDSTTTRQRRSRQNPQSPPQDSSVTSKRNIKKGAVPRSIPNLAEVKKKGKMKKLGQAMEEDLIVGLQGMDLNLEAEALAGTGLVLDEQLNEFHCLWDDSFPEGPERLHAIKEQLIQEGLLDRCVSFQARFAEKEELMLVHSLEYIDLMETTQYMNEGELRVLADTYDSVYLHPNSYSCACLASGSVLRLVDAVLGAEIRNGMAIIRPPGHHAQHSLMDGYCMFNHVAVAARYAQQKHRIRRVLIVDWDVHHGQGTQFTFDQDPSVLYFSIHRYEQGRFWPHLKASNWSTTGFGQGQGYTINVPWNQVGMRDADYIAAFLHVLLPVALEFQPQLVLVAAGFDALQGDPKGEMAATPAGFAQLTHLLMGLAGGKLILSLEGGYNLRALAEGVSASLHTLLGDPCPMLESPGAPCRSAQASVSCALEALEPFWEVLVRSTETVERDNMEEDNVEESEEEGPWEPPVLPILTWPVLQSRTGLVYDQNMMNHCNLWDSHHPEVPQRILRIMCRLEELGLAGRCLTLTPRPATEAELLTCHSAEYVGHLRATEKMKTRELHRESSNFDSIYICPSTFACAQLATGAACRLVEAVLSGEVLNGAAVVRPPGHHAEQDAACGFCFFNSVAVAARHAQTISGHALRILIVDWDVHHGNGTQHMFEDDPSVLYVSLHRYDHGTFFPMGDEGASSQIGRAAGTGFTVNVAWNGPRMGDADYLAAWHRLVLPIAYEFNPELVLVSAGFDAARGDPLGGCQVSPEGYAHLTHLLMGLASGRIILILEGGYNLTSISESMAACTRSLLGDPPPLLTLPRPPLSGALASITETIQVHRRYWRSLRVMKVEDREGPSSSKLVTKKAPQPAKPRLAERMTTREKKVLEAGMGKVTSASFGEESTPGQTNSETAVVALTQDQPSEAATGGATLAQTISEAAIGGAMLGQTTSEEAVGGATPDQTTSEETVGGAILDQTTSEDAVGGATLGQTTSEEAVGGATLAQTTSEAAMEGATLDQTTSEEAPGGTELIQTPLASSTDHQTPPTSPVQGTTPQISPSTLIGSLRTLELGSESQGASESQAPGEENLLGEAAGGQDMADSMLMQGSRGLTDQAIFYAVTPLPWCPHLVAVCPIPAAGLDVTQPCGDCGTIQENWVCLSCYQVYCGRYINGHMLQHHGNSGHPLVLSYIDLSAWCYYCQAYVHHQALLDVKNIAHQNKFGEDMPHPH
Nature of the test: Inhibition of HDAC6 in human CAL27 cells assessed as acetylation of alpha-tubulin at […] measured after 24 hrs by immunoblot analysis. In kind it is cell-based.

Test [19] deals with T1, Class 1 histone deacetylase. Nature of the test: Inhibition of class 1 HDAC in human Cal27CisR cells assessed as increase in histone H3 acetylation at […] measured after 24 hrs by immunoblot analysis. In kind it is cell-based.

Structures are written as SMILES. Active and inactive are the calls of the source. No cut-off for these calls is given here.

T1 sequence (O15379 whole entry, looked up): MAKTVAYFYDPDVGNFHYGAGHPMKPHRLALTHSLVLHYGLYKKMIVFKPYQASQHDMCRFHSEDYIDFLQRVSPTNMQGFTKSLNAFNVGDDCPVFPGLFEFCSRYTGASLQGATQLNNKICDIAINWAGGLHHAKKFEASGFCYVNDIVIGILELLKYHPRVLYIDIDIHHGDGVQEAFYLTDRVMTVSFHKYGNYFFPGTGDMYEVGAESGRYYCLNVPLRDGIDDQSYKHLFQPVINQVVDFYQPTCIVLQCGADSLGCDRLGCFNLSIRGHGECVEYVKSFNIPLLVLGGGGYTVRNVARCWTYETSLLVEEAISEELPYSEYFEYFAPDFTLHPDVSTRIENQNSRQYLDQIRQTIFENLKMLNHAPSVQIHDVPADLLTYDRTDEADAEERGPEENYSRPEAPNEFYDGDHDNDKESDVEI
T1 sequence (Q13547 whole entry, looked up): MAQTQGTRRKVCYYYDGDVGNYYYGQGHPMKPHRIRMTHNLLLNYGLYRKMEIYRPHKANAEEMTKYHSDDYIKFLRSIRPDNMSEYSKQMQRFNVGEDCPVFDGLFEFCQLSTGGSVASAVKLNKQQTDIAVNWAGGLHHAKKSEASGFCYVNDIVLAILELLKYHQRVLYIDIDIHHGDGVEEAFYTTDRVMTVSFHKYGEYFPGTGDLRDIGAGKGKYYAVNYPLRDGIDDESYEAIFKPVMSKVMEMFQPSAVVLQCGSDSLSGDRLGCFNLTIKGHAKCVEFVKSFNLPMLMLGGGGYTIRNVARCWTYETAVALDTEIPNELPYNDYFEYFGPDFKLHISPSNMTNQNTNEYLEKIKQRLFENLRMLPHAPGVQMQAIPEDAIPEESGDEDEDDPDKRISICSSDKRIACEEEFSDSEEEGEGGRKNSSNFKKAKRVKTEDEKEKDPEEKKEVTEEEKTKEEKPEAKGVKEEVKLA
T1 sequence (Q92769 whole entry, looked up): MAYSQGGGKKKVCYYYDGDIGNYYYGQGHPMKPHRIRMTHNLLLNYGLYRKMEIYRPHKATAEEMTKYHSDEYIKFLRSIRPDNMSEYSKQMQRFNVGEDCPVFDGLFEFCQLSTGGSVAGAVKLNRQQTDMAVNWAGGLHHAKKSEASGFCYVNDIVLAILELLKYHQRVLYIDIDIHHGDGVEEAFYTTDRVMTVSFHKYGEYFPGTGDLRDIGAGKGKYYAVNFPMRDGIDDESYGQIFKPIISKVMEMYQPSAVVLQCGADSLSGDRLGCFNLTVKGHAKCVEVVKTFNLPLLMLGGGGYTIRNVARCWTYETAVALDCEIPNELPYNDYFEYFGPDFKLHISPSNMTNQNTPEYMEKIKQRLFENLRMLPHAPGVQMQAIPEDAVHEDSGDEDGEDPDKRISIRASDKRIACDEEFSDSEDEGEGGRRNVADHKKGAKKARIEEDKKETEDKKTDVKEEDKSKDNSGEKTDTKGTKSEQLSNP
T1 sequence (Q9BY41 whole entry, looked up): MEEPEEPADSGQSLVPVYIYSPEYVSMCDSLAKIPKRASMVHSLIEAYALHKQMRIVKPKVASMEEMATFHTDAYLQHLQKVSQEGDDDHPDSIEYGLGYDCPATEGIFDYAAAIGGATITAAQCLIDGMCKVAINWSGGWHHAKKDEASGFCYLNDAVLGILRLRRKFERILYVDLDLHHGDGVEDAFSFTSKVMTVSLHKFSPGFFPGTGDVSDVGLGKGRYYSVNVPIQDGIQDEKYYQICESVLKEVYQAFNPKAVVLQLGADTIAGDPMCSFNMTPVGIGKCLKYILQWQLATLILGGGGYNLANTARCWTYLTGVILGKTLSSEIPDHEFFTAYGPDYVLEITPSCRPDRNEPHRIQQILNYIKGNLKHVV

As to `CN(C)c1ccc(C(=O)N(CC(=O)NCc2ccccc2)Cc2ccc(C(=O)Nc3ccccc3N)cc2)cc1`, the CI in [1] is less than 0.2; in test [2], 0.07; in test [3], 0.11; in [4], less than 0.2; in test [5], less than 0.2; in test [6], 0.23. The Activity in test [7] was 32.1%. This compound came in with a 50% inhibitory concentration (IC50) in [8] of 1260 nM.

Consider `Cc1cc(C)cc(C(=O)N(CCCCCC(=O)Nc2cc(-c3ccccc3)ccc2N)CC(=O)NCc2ccccc2)c1`, for which the inhibition entry in test [9] and in test [13] was “Active” throughout. Moreover, the CI in [10] is less than 0.2; in test [11] it was 0.05; in test [12], 0.09. For the same compound, the IC50 in test [14] is 1860 nM. In addition, the Ratio IC50 in test [15] was 4.03.

Consider `Cc1cc(C)cc(C(=O)N(CC(=O)NCc2ccccc2)Cc2ccc(C(=O)Nc3cc(-c4ccccc4)ccc3N)cc2)c1`, for which the IC50 in [16] is 12000 nM. The inhibition entry in test [17] and in test [19] was “Active” in each case. Moreover, the inhibition result in test [18] was “inactive”.
